# Data: US6831199B1, “Pyrimidine compounds and derivatives thereof” (G. D. Searle & Co., priority 1995, dated 2004)
# Where a name gives a salt, the structure may show the parent alone.
# Assays:
# [1] = target: T1, Human vitronectin receptor (αvβ3) (Homo sapiens, UniProt P05106+P06756); experiment: Vitronectin adhesion assay (solid phase receptor assay, competition with biotinylated vitronectin); assay type: binding; conditions: read-out: AvB3 IC50
# T1 construct: Human vitronectin receptor (αvβ3) was purified from human placenta; from tissue; host or cells: human placenta
# Experimental: VITRONECTIN ADHESION ASSAY
# Assay buffer, OPD substrate tablets, and RIA grade BSA were obtained from Sigma (St. Louis, Mo.). Anti-biotin antibody was obtained from Calbiochem (La Jolla, Calif.). Linbro microtiter plates were obtained from Flow Labs (McLean, Va.). ADP reagent was obtained from Sigma (St. Louis, Mo.).
# (§1) Solid Phase Receptor Assays
# (§2) The purified human vitronectin receptor (αvβ3) was diluted from stock solutions to 1.0 μg/mL in Tris-buffered saline containing 1.0 mM Ca^++, Mg^++, and Mn^++, pH 7.4 (TBS^+++). The diluted receptor was immediately transferred to Linbro microtiter plates at 100 μL/well (100 ng receptor/well). The plates were sealed and incubated overnight at 4° C. to allow the receptor to bind to the wells. All remaining steps were at room temperature. The assay plates were emptied and 200 μL of 1% RIA grade BSA in TBS^+++(TBS^+++/BSA) were added to block exposed plastic surfaces. Following a 2 hour incubation, the assay plates were washed with TBS^+++ using a 96 well plate washer. Logarithmic serial dilution of the test compound and controls were made starting at a stock concentration of 2 mM and using 2 nM biotinylated vitronectin in TBS^+++/BSA as the diluent. This premixing of labeled ligand with test (or control) ligand, and subsequent transfer of 50 μL aliquots to the assay plate was carried out with a CETUS Propette robot; the final concentration of the labeled ligand was 1 nM and the highest concentration of test compound was 1.0×10^−4 M. The competition occurred for two hours after which all wells were washed with a plate washer as before. Affinity purified horseradish peroxidase labeled goat anti-biotin antibody was diluted 1:3000 in TBS^+++/BSA and 125 μL were added to each well. After 30 minutes, the plates were washed and incubated with OPD/H2O2 substrate in 100 mM/L Citrate buffer, pH 5.0. The plate was read with a microtiter plate reader at a wavelength of 450 nm and when the maximum-binding control wells reached an absorbance of about 1.0, the final A450 were recorded for analysis. The data were analyzed using a macro written for use with the EXCEL™ spreadsheet program. The mean, standard deviation, and % CV were determined for duplicate concentrations. The mean A450 values were normalized to the mean of four maximum-binding controls (no competitor added)(B-MAX). The normalized values were subjected to a four parameter curve fit algorithm [Rodbard et al., Int.
# [2] = target: T2, Human fibrinogen receptor (αIIbβ3) (Homo sapiens, UniProt P05106+P08514); experiment: Purified IIb/IIIa receptor assay (solid phase receptor assay, competition with biotinylated vitronectin); assay type: binding; conditions: read-out: IIb/IIIa IC50
# T2 construct: Human fibrinogen receptor (αIIbβ3) was purified from outdated platelets; from tissue; host or cells: outdated human platelets
# Experimental: PURIFIED IIb/IIIa RECEPTOR ASSAY
# Human fibrinogen receptor (αIIbβ3) was purified from outdated platelets. […] Biotinylated human vitronectin was prepared by coupling NHS-biotin from Pierce Chemical Company (Rockford, Ill.) to purified vitronectin as previously described. […] Anti-biotin antibody was obtained from Calbiochem (La Jolla, Calif.). Linbro microtiter plates were obtained from Flow Labs (McLean, Va.). ADP reagent was obtained from Sigma (St. Louis, Mo.).
# as §1
# as §2, with “human fibrinogen” for “human vitronectin”, “receptor (αIIbβ3)” for “receptor (αvβ3)”, “in TBS^+++ (TBS^+++/BSA)” for “in TBS^+++(TBS^+++/BSA)”, “with […]” for “with OPD/H2O2”, “mM/L citrate” for “mM/L Citrate”, “fit algorithm, [Robard” for “fit algorithm [Rodbard”
IC50 [1],IC50 [2],Compound
89.3 nM,830 nM,"N=C(N)Nc1cccc(C(=O)NCC(=O)NC(CC(=O)O)c2cc(N)ccc2O)c1 (racemic) [Example 234, (±)5-amino-β-[[2-[[[3-[(aminoiminomethyl)amino]phenyl]carbonyl]amino]acetyl]amino]-2-hydroxybenzenepropanoic acid, bis(trifluoroacetate)salt, monohydrate]"
0.54 nM,29.9 nM,"N=C(N)Nc1cccc(C(=O)NCC(=O)NC(CC(=O)O)c2cncc(Br)c2)c1 (racemic) [Example 235, (±)β-[[2-[[[3-[(aminoiminomethyl)amino]phenyl]carbonyl]amino]acetyl]amino]-5-bromopyridine-3-propanoic acid, bis(trifluoroacetate)salt, monohydrate]"
0.53 nM,1250 nM,"O=C(O)CC(NC(=O)CNC(=O)c1cccc(NC2=NCCCN2)c1)c1cc(Cl)cc(Br)c1O (racemic) [Example 236, (±)3-bromo-5-chloro-2-hydroxy-β-[[2-[[[3-[(1,4,5,6-tetrahydropyrimidin-2-yl)amino]phenyl]carbonyl]amino]acetyl]amino]benzenepropanoic acid, trifluoroacetate salt, monohydrate]"
0.57 nM,1950 nM,"O=C(O)CC(NC(=O)CNC(=O)c1cccc(NC2=NCCCN2)c1)c1cc(Cl)cc(Cl)c1O (racemic) [Example 237, (±)3,5-dichloro-2-hydroxy-β-[[2-[[[3-[(1,4,5,6-tetrahydropyrimidin-2-yl)amino]phenyl]carbonyl]amino]acetyl]amino]benzenepropanoic acid, trifluoroacetate salt, monohydrate]"
0.92 nM,646 nM,"O=C(O)CC(NC(=O)CNC(=O)c1cccc(NC2=NCCN2)c1)c1cc(Cl)cc(Cl)c1O (racemic) [Example 238, trifluoroacetate salt, monohydrate]"
0.96 nM,134 nM,"CSc1cccc(C(CC(=O)O)NC(=O)CNC(=O)c2cccc(NC(=N)N)c2)c1 (racemic) [Example 245, (±)β-[[2-[[[3-[(aminoiminomethyl)amino]phenyl]carbonyl]amino]acetyl]amino]-3-(methylthio)benzenepropanoic acid, trifluoroacetate salt]"
7.24 nM,802 nM,"Cc1cccc(C(CC(=O)O)NC(=O)CNC(=O)c2cccc(NC(=N)N)c2)n1 (racemic) [Example 246, (±)β-[[2-[[[3-[(aminoiminomethyl)amino]phenyl]carbonyl]amino]acetyl]amino]-6-methylpyridine-2-propanoic acid, bis(trifluoroacetate)salt]"
1.24 nM,172 nM,"COc1cc(C(CC(=O)O)NC(=O)CNC(=O)c2cccc(NC(=N)N)c2)cc(Br)c1OC (racemic) [Example 262, (±)β-[[2-[[[3-[(aminoiminomethyl)amino]phenyl]carbonyl]amino]acetyl]amino]-3-bromo-4,5-dimethoxybenzenepropanoic acid, trifluoroacetate salt]"
173 nM,1990 nM,"C/N=C(\NC)Nc1cccc(C(=O)NCC(=O)NC(CC(=O)O)c2cc(Cl)cc(Cl)c2)c1 (racemic) [Example 294, (±)3,5-dichloro-β-[[2-[[[3-[[(methylamino)(methylimino)methyl]amino]phenyl]carbonyl]amino]acetyl]amino]benzenepropanoic acid, trifluoroacetate salt]"
144 nM,4560 nM,"CCN/C(=N\C)Nc1cccc(C(=O)NCC(=O)NC(CC(=O)O)c2cc(Cl)cc(Cl)c2)c1 (racemic) [Example 295, (±)3,5-dichloro-β-[[2-[[[3-[[(ethylamino)(methylimino)methyl]amino]phenyl]carbonyl]amino]acetyl]amino]benzenepropanoic acid, trifluoroacetate salt]"
404 nM,9450 nM,"C/N=C(/Nc1cccc(C(=O)NCC(=O)NC(CC(=O)O)c2cc(Cl)cc(Cl)c2)c1)NC(C)C (racemic) [Example 296, (±)3,5-dichloro-β-[[2-[[[3-[[[(1-methylethyl)amino](methylimino)methyl]amino]phenyl]carbonyl]amino]acetyl]amino]benzenepropanoic acid, trifluoroacetate salt]"
89.8 nM,3920 nM,"CCN/C(=N\C)Nc1cccc(C(=O)NCC(=O)NC(CC(=O)O)c2ccc(F)cc2)c1 (racemic) [Example 297, (±)β-[[2-[[[3-[[(ethylamino)(methylimino)methyl]amino]phenyl]carbonyl]amino]acetyl]amino]-4-fluorobenzenepropanoic acid, trifluoroacetate salt]"
252 nM,5560 nM,"C/N=C(/Nc1cccc(C(=O)NCC(=O)NC(CC(=O)O)c2ccc(F)cc2)c1)NC(C)C (racemic) [Example 298, (±)4-fluoro-β-[[2-[[[3-[[[(1-methylethyl)amino](methylimino)methyl]amino]phenyl]carbonyl]amino]acetyl]amino]benzenepropanoic acid, trifluoroacetate salt]"
109 nM,927 nM,"C/N=C(\NCc1ccncc1)Nc1cccc(C(=O)NCC(=O)NC(CC(=O)O)c2ccc(F)cc2)c1 (racemic) [Example 299, (±)4-fluoro-β-[[2-[[[3-[[[(4-pyridinylmethyl)amino](methylimino)methyl]amino]phenyl]carbonyl]amino]acetyl]amino]benzenepropanoic acid, trifluoroacetate salt]"
0.84 nM,7260 nM,"CC1(C)CN=C(Nc2cccc(C(=O)NCC(=O)NC(CC(=O)O)c3cc(Cl)cc(Cl)c3O)c2)NC1 (racemic) [Example 362, (±)3,5-dichloro-2-hydroxy-β-[[2-[[[3-[(1,4,5,6-tetrahydro-5,5-dimethylpyrimidin-2-yl)amino]phenyl]carbonyl]amino]acetyl]amino]benzenepropanoic acid, trifluoroacetate salt]"
3.58 nM,223 nM,"N=C(N)Nc1cccc(C(=O)NCC(=O)NC(CC(=O)O)c2ncc[nH]2)c1 (racemic) [Example 364, (±)β-[[2-[[[3-[(aminoiminomethyl)amino]phenyl]carbonyl]amino]acetyl]amino]-1H-imidazole-2-propanoic acid, tris(trifluoroacetate)salt]"
16.9 nM,8470 nM,"N=C(N)Nc1cccc(C(=O)NCC(=O)NC(CC(=O)O)c2c(F)c(F)cc(F)c2F)c1 (racemic) [Example 365, (±)β-[[2-[[[3-[(aminoiminomethyl)amino]phenyl]carbonyl]amino]acetyl]amino]-2,3,5,6-tetrafluorobenzenepropanoic acid, trifluoroacetate salt]"
